This is an account of results in ChEMBL document CHEMBL1201862, “PubChem BioAssay data set” (2004).

Activity calls are given as the source filed them.

For assay [1], the target named is ELAV-like protein 1 (Homo sapiens, UniProt Q15717). Nature of the assay: Identify HuR specific inhibitors. The assay is classed as functional.
Assay [2] deals with BJ. Nature of the assay: cells. The assay is classed as functional, cell-based. Particulars: Homo sapiens.
Assay [3] concerns BJ. Nature of the assay: cytotoxicity toward BJ-TERT-LT-ST fibroblasts, dose response, cell-based, RAS-independent, luminescence (AID 1935).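 Further: BJ fibroblasts immortalized with TERT plus LT and ST oncogenes.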 It counts as functional. Particulars: Homo sapiens.
Assay [4] deals with BJ. Description: cytotoxicity toward Ras-transformed BJeLR fibroblasts, dose response, cell-based, alamar blue fluorescence, cherrypicked samples (AID 2631).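 Further: confirmatory dose-response assay in RAS-dependent BJ fibroblasts engineered with TERT, LT and ST, with cytotoxicity read by fluorescence.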 The assay is classed as functional. To be noted: Homo sapiens. In general terms: Alamar Blue is a resazurin reagent that responds to reducing activity.
Assay [5] has as its system BJ. Nature of the assay: cytotoxicity toward BJ-TERT fibroblasts, dose response, cell-based, RAS-independent, luminescence (AID 1933). The assay is classed as functional. To be noted: Homo sapiens.
Assay [6] can be described thus: cytotoxicity toward DRD oncogenic fibroblasts, dose response, cell-based, non-viral oncogenic, luminescence (AID 1934). The assay is classed as functional. To be noted: Homo sapiens.
Assay [7] deals with Heat shock protein HSP 90-alpha (Homo sapiens, UniProt P07900). Nature of the assay: Luminescence-based dose response biochemical high throughput screening assay for inhibitors of the Heat Shock Protein 90 (HSP90). [Related pubchem assays: 1831 (Summary AID.), 1846 (Confirmation screen.), 1789 (Primary screen.)].
Assay [8] is described as follows: A549 cell cytotoxicity, dose response, cytotoxicity control, 24 h, CellTiter-Glo luminescence, cherry-picks (AID 1053115). The assay is classed as functional, cell-based. To be noted: A549, 24 h. In general terms: ATP-based viability assays read luminescence as a measure of living cells.
Assay [9] concerns the target NAD-dependent protein deacylase sirtuin-5, mitochondrial (Homo sapiens, UniProt Q9NXA8). Description: SIRT5 deacylase inhibitors, dose response, biochemical, fluorescence imaging, cherry-pick, set 6 (AID 720597).
The nature of assay [10]: CTGF mRNA reduction under YAP1 overexpression, dose response, mechanism study for YAP1 pathway inhibitor project, DLD1 cells, RT-qPCR, cherry-pick (AID 1053127). The assay is classed as functional, cell-based. To be noted: DLD-1. In general terms: Real-time PCR tracks product formation cycle by cycle.
Assay [11] can be described thus: P. falciparum ATP4 D1247Y mutant growth inhibitors, dose response, NITD609-resistant line, SYBR Green, dry powder (AID 1159571).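 Further: parasites synchronized at ring stage by sorbitol before testing.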 It counts as functional, cell-based.
Assay [12] in a line: P. falciparum Dd2 growth inhibitors, dose response, SYBR Green, cherry-picked samples (AID 1159567). It counts as functional, cell-based.
Assay [13] can be described thus: P. falciparum 3D7-ScDHODH growth inhibitors, dose response, SYBR Green, dry powder samples (AID 1159570).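 Further: parasite growth measured after 72 hours of compound exposure.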 The assay is classed as functional, cell-based.
Assay [14] can be described thus: HepG2 cell cytotoxicity, dose response, cytotoxicity control, cherry-picked samples (AID 1159577). It counts as functional, cell-based.
The nature of assay [15]: P. falciparum Dd2 growth inhibitors, dose response, SYBR Green, dry powder samples (AID 1159566).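 Further: potency for growth inhibition with lower SYBR green DNA signal.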 The assay is classed as functional, cell-based.
The nature of assay [16]: Plasmodium falciparum Dd2 Sybr green parasite growth Measured in Cell-Based and Microorganism Combination System Using Plate Reader - 2153-01_Inhibitor_Dose_DryPowder_Activity_Set10. The assay is classed as functional.
Assay [17] can be described thus: HCT116 cell viability decrease, GSK3B pretreatment – CellTiter-Glo, IC50, dose response (AID 1117339). The assay is classed as functional. Particulars: HCT-116.
A short description of assay [18]: RKO cell viability reduction, dose response, CellTiter-Glo luminescence (AID 1117322). The assay is classed as functional.
A short description of assay [19]: cytotoxicity toward HT-29 cells – cell-based, CellTiter-Glo luminescence, IC50, dose response (AID 1117330). The assay is classed as functional.
The nature of assay [20]: cytotoxicity toward HCT116 cells – cell-based, CellTiter-Glo luminescence, IC50, dose response (AID 1117332). The assay is classed as functional. Particulars: HCT-116.
Assay [21] is described as follows: CellTiter-Glo luminescent dose response of DLD-1 viability loss (AID 1117352). The assay is classed as functional.
Assay [22] can be described thus: SNU-C1 cell viability reduction, dose response, CellTiter-Glo luminescence (AID 1117323). The assay is classed as functional, cell-based.
A short description of assay [23]: HeLa 4N DNA content increase, dose response, cell-based, IC50 (AID 1117351). It counts as functional.
Assay [24] in a line: HeLa 2N DNA content increase, dose response, cell-based, IC50 (AID 1117349). The assay is classed as functional.
The target in assay [25] is Induced myeloid leukemia cell differentiation protein Mcl-1 (Homo sapiens, UniProt Q07820). The assay is classed as functional.
Assay [26] deals with Bifunctional protein GlmU (Mycobacterium tuberculosis, UniProt P9WMN3). Nature of the assay: Inhibitors of Mycobacterial Glucosamine-1-phosphate acetyl transferase (GlmU). Secondary screen. Further details: species or system Mycobacterium tuberculosis H37Rv.
Bifunctional protein GlmU, sequence (P9WMN3 whole entry): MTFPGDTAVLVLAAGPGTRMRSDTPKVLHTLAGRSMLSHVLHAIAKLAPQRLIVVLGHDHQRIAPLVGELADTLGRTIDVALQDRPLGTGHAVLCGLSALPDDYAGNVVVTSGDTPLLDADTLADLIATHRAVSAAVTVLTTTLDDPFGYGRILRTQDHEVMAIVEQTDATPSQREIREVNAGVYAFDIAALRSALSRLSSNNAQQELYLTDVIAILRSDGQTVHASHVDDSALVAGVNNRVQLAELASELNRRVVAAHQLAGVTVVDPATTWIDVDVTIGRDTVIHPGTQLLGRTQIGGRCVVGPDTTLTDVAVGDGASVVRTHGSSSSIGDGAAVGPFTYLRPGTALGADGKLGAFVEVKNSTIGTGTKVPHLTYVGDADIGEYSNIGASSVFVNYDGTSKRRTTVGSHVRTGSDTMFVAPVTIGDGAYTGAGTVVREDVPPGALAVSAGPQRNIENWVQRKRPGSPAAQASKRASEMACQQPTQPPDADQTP

Induced myeloid leukemia cell differentiation protein Mcl-1, sequence (Q07820 whole entry): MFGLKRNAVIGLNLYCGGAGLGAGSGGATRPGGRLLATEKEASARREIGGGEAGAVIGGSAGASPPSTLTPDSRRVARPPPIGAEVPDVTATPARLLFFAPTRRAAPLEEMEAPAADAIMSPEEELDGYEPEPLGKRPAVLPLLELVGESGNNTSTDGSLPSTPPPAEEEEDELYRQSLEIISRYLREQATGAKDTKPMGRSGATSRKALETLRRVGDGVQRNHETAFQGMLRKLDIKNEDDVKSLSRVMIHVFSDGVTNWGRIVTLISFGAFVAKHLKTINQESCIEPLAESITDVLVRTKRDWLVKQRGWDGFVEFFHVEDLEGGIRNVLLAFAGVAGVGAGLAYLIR
NAD-dependent protein deacylase sirtuin-5, mitochondrial, sequence (Q9NXA8 whole entry): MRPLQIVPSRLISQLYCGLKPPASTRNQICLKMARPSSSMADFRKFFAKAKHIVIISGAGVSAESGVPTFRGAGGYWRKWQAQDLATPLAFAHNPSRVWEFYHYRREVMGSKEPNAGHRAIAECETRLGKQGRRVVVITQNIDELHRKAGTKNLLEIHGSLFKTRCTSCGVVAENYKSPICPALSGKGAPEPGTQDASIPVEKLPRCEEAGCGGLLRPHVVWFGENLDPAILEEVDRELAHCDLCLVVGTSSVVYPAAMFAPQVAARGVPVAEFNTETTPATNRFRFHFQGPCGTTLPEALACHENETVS
ELAV-like protein 1, sequence (Q15717 whole entry): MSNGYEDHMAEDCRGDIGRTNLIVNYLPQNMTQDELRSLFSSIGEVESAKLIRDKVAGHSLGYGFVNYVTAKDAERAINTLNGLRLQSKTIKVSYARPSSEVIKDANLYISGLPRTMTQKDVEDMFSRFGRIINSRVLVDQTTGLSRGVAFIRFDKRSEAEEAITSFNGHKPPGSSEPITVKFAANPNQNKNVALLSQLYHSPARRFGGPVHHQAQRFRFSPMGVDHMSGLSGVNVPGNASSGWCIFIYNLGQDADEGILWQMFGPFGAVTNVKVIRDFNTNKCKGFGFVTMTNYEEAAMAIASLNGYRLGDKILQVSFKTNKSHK

As usually defined, the IC50 is the concentration at which inhibition is half-maximal. Regarding `CC1=CC(C)(C)N=C(S)N1c1cccc2cc(S(=O)(=O)O)ccc12`, the IC50 in [1] is 14.7 µM (inactive).
Usually EC50 stands for the concentration giving half of the maximal effect. Regarding `CNC(=S)N/N=C/c1ccc(-c2ccc(C(=O)O)cc2)o1`, the EC50 was 5.08 µM (active) in assay [2]; 17 µM (active) in assay [3]; > 133 µM (inactive) in assay [4]; 4.2 µM (active) in [5]; 5.6 µM (active) in assay [6]. The IC50 in [7] was 8.05 µM (active).
The AC50 is the midpoint of the concentration-response curve, whichever way the signal moves. Consider `COc1ccccc1CN1CC[C@@H]2[C@@H](CO)Nc3ccc(C#Cc4ccccc4)cc3[C@@H]21`, for which the AC50 in assay [8] was > 60 µM (inactive).
Consider `C[C@@H]1CN([C@H](C)CO)S(=O)(=O)c2ccc(/C=C/c3ccccc3)cc2O[C@H]1CN(C)C(=O)Nc1cc(F)ccc1F`, for which the AC50 in assay [9] was > 30 µM (inactive).
Regarding `CC(C)(C)[S@@+]([O-])N1Cc2cc(C(=O)NCCc3ccncc3)nc(-c3cccc(-c4cccc(C#N)c4)c3)c2[C@H]1CCO`, in assay [10], the AC50 was 498 nM (active).
As to `COc1ccc(-c2ccccc2[C@H]2[C@@H](C#N)N(C(=O)C3CCCC3)[C@@H]2CO)cc1`, the AC50 in assay [11] is 2.54 µM (active); in assay [12], 1.34 µM (active); in assay [13] it was 690 nM (active); in [14], > 42 µM (inactive); in assay [15] it was 717 nM (active); in [16] it was 867 nM (active).
Regarding `CC(C)C[C@H](NC(=O)[C@H](CCc1ccccc1)NC(=O)CN1CCOCC1)C(=O)N[C@@H](Cc1ccccc1)C(=O)N[C@@H](CC(C)C)C(=O)[C@@]1(C)CO1` [CARFILZOMIB], the IC50 in assay [17] is 1.73 nM (active); in assay [18], 3.94 nM (active); in assay [19] it was 3.18 nM (active); in [20], 5.58 nM (active); in assay [21], 6.96 nM (active); in [22], 1.47 nM (active). Besides, the IC50 in assay [23] and in [24] was > 10 µM (inactive) each time.
As to `O=C(/C=C/c1ccc(O)c(O)c1)O[C@H](Cc1ccc(O)c(O)c1)C(=O)O` [ROSMARINIC ACID], the IC50 in assay [25] was 2.03 µM (active); in assay [26] it was 84.9 µM (active).
